Measured values published in US20070270436A1, “NOVEL AMINO- AND IMINO-ALKYLPIPERAZINES” (Recordati Ireland Limited, priority 2006, published 2007).

What was measured:
[1] = target: T1, human cloned 5-HT1A receptors (Homo sapiens, UniProt P08908); assay: [35S]GTPγS binding, functional activity; assay type: biochemical; design: key: neutral antagonists (NA); inverse agonists (IA); conditions: HeLa membranes with human 5-HT1A
T1 construct: expressed in transfected cells; host or cells: HeLa (human), stably transfected; membranes
T1 sequence (P08908 1-422): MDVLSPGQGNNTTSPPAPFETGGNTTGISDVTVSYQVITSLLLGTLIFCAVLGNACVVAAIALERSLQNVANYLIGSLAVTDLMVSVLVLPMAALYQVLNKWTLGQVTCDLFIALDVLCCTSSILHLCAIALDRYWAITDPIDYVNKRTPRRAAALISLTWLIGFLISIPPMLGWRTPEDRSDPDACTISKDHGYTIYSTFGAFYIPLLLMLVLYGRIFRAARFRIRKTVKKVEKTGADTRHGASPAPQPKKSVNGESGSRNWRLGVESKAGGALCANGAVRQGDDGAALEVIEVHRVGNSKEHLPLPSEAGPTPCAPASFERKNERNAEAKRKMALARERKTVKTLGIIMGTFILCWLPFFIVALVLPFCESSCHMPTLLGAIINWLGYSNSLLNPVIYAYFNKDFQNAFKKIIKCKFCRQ
Description: On the date of the experiment, cell membranes from HeLa cells transfected with human cloned 5-HT1A receptors were resuspended in buffer pH 7.4 containing 20 mM HEPES, 3 mM MgCl2 and 120 mM NaCl (Stanton, J. A.; Beer, M. S. Eur. J. Pharmacol. 320, 267-275, 1997). The membranes were incubated with 10 μM GDP and decreasing concentrations of test drugs (from 100 μM to 0.1 nM) or decreasing concentrations of 5-HT (from 100 μM to 0.1 nM, reference curve) for 20 min at 30° C. in a final volume of about 0.25 ml. [^35S]GTPγS (200-250 pM in 10 μl) was added to samples and incubated for a further 30 min at 30° C. Non-specific binding was determined in the presence of 10 μM GTPγS. The incubation was stopped by addition of ice-cold HEPES buffer and rapid filtration on Unifilter GF/C filters, using a Filtermate cell harvester (Packard). The filters were washed four times with total 1.2 ml of same buffer. Radioactivity was counted by liquid scintillation spectrometry with efficiency >90% (TopCount Packard). Stimulation of [^35S]GTPγS binding induced by the compounds tested was expressed as % increase in binding above basal value, being the maximal stimulation observed with 5-HT taken as 100%. The concentration-response curve of the agonistic activity was analyzed by non linear fitting program (De Lean et al., Am. J. Physiol. 235, E97-E102, 1978).
A stimulation of [^35S]GTPγS binding represented the functional correlate of the binding of an agonist compound at the 5-HT1A receptors. Stimulation induced by the endogenous ligand 5-HT was considered the maximal stimulation attainable. Compounds stimulating [^35S]GTPγS binding at a lower level were considered as partial agonists. […] Compounds that reduced [^35S]GTPγS binding were considered as inverse agonists.

[2] = target: T2, human 5HT1A-serotonergic receptor (Homo sapiens, UniProt P08908); assay: Radioligand binding to recombinant 5-HT1A receptor ([3H]8-OH-DPAT, HeLa cell membranes); conditions: 1 nM [3H]8-OH-DPAT; Ki from IC50 by the Cheng equation; read-out: Ki (nM), binding affinity for 5HT1A receptor
T2 construct: expressed in transfected cells; host or cells: HeLa (human), stably transfected; membranes
T2 sequence (P08908 1-422): T1 sequence (P08908 1-422)
Description: Genomic clone G-21 encoding the human 5HT1A-serotonergic receptor was stably transfected in a human cell line (HeLa). HeLa cells were grown as monolayers in Dulbecco's modified Eagle medium (DMEM), containing 10% fetal bovine serum and gentamycin (100 μg/ml) at 37° C. in a humidified atmosphere of 5% CO2 and air. The cells were detached from the growth flask at 95% confluence by a cell scraper and were lysed in cold 5 mM Tris and 5 mM EDTA buffer (pH 7.4). The homogenates were centrifuged at 40000×g×20 minutes and the pellets were resuspended in a small volume of cold 5 mM Tris and 5 mM EDTA buffer (pH 7.4) and immediately frozen and stored at −70° C. until use. On the day of experiment, the cell membranes were resuspended in incubation buffer: 50 mM Tris (pH 7.4), 2.5 mM MgCl2, 10 μM pargyline (Fargin et al., Nature 335, 358-360, 1988). The membranes were incubated in a final volume of 0.32 ml for 30 minutes at 30° C. with 1 nM [^3H]8-OH-DPAT, in the absence or presence of the test compounds. Non-specific binding was determined in the presence of 10 μM 5-HT. Incubation was stopped by addition of cold Tris buffer and rapid filtration through UniFilter GF/C plate.
The affinity of the tested compounds was evaluated as inhibition of specific binding of the radioligand to 5-HT1A receptor (IC50) by using the non-linear curve-fitting program Allfit (De Lean et al., Am. J. Physiol. 235, E97-E102 (1978)). The IC50 value was converted to an affinity constant (Ki) by the equation of Cheng et al., Biochem. Pharmacol. 22, 3099-3108 (1973).

SMILES	Functional Activity [1]	Ki [2] [nM]
COc1ccccc1N1CCN(CC[C@@H](c2ccccc2F)[C@@H](C2CCCCC2)N(C)C(=S)N(C)C)CC1 (racemic) [Example 53, 1-{(RS,SR)-1-Cyclohexyl-2-(2-fluorophenyl)-4-[4-(2-methoxyphenyl)piperazin-1-yl]butyl}-1,3,3-trimethylthiourea]	IA	1.7
COc1ccccc1N1CCN(CC[C@@H](c2ccccc2F)[C@H](NC(=S)N(C)C)C2CCCCC2)CC1 (single isomer, unassigned) [Example 24A, 3-{(1R,2S) or (1S,2R)-1-Cyclohexyl-2-(2-fluorophenyl)-4-[4-(2-methoxyphenyl)piperazin-1-yl]butyl}-1,1-dimethylthiourea]	IA	0.7
CC(=O)N(C)C(C1CCCCC1)C(CCN1CCN(c2cccc3c2OCCO3)CC1)c1ccccc1F (stereo not drawn) [Example 41, N-[1-Cyclohexyl-4-[4-(2,3-dihydrobenzo[1,4]dioxin-5-yl)piperazin-1-yl]-2-(2-fluoro-phenyl)butyl]-N-methylacetamide]	IA	0.9

Results, then the molecule that gave them:

Functional Activity [1]	Ki [2] [nM]	SMILES
IA	0.68	CON[C@H](C1CCCCC1)[C@@H](CCN1CCN(c2ccccc2OC)CC1)c1ccccc1F (racemic) [Example 4a, (RS,SR)-N-{1-Cyclohexyl-2-(2-fluorophenyl)-4-[4-(2-methoxyphenyl)piperazin-1-yl]butyl}-O-methylhydroxylamine]
IA	0.68	COc1ccccc1N1CCN(CC[C@@H](c2ccccc2F)[C@@H](C2CCCCC2)N(C(C)=O)C(C)=O)CC1 (racemic) [Example 8, N-Acetyl-N-{(RS,SR)-1-cyclohexyl-2-(2-fluorophenyl)-4-[4-(2-methoxyphenyl)piperazin-1-yl]butyl}acetamide]
IA	0.3	COc1ccccc1N1CCN(CCC(c2ccccc2F)C(NCc2ccccc2)C2CCCCC2)CC1 (stereo not drawn) [Example 13, (RS,SR)- and (RS,RS)-N-Benzyl-{1-cyclohexyl-2-(2-fluorophenyl)-4-[4-(2-methoxyphenyl)piperazin-1-yl]butyl}amine]
